# Experimental data reported in patent publication US20260297070A1, “CYCLIC [COMPOUND LEFT OUT] WRN INHIBITORS” (Nimbus Wadjet, Inc., priority 2023, published 2026).
# Molecular target: T1, human Werner helicase (WRN-BV08, Uniprot Q14191, amino acids 517-1235 with L1074F point mutation) (Homo sapiens, UniProt Q14191, L1074F)
# T1 construct: Uniprot Q14191, amino acids 517-1235 with L1074F point mutation; TEV-cleavable 8×His (C, cleaved yes); made in house; host or cells: Sf9 insect cells (baculovirus)
# T1 sequence (Q14191 with tags, fused parts or gaps L1074F limits assumed): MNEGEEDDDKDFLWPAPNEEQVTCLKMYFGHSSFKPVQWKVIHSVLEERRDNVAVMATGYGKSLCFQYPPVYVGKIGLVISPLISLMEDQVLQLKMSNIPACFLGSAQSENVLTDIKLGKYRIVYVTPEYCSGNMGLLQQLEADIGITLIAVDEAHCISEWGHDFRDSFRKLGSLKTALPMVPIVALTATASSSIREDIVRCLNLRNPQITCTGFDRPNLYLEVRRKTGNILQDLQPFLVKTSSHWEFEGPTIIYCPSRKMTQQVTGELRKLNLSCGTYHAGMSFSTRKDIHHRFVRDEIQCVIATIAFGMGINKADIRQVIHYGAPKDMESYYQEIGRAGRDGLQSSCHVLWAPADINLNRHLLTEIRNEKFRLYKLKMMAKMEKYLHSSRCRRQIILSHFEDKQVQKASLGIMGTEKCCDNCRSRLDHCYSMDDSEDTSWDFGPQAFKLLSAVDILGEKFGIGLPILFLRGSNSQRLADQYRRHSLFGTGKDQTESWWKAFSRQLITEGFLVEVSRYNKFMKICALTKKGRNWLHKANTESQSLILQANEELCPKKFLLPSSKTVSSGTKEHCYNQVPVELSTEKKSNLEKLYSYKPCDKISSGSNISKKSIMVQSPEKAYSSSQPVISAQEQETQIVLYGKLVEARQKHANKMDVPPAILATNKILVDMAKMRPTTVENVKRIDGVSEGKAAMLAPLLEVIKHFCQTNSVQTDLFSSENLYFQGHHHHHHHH
# Test: WRN (BV08) ADP-Glo Assay
# Type: biochemical
# Details: 0.15 nM WRN, 5 μM ATP, 0.1 nM DNA duplex, 15 min preincubation, 60 min at 25° C., pH 7.5, 1% DMSO; read-out: ADP-Glo_hWRN_IC50
# Summary of the method: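 ADP-Glo luminescence read-out of ATP hydrolysis. Conditions: 0.15 nM WRN, 5 μM ATP, 0.1 nM DNA duplex, 1% DMSO, 60 min at 25 °C after 15 min compound preincubation. Max/min controls were DMSO and 20 μM NSC-617145; IC50 from four-parameter fit.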
row,SMILES,IC50
1,"O=C(Cc1ccc(-n2cccc2)cc1)N(Cc1nc2ccccc2s1)C1C=CS(=O)(=O)C1 (centres unmarked) [I-149, N-[(1,3-benzothiazol-2-yl)methyl]-N-(1,1-dioxo-2,3-dihydro-1lambda6-thiophen-3-yl)-2-[4-(1H-pyrrol-1-yl)phenyl]acetamide]",500 to 5000 nM
2,"Cc1cccn1-c1ccc(CC(=O)N(Cc2ccnnc2)C2C=CS(=O)(=O)C2)c(F)c1 (centres unmarked) [I-150, N-(1,1-dioxo-2,3-dihydro-1lambda6-thiophen-3-yl)-2-[2-fluoro-4-(2-methyl-1H-pyrrol-1-yl)phenyl]-N-[(pyridazin-4-yl)methyl]acetamide]",500 to 5000 nM
3,"CC(C)c1ccc(CC(=O)N(Cc2ccncc2)C2C=CS(=O)(=O)C2)c(F)c1 (centres unmarked) [I-151, N-(1,1-dioxo-2,3-dihydro-1lambda6-thiophen-3-yl)-2-[2-fluoro-4-(propan-2-yl)phenyl]-N-[(pyridin-4-yl)methyl]acetamide]",500 to 5000 nM
4,"CC(C)(O)c1cc(CN(C(=O)Cc2ccc(-n3cccc3)cc2)C2C=CS(=O)(=O)C2)ccn1 (centres unmarked) [I-152, N-(1,1-dioxo-2,3-dihydro-1lambda6-thiophen-3-yl)-N-{[2-(2-hydroxypropan-2-yl)pyridin-4-yl]methyl}-2-[4-(1H-pyrrol-1-yl)phenyl]acetamide]",500 to 5000 nM
5,"C#CCN(C)C(=O)c1ccc(CN(C(=O)Cc2ccc(-n3cccc3)cc2F)C2C=CS(=O)(=O)C2)cc1 (centres unmarked) [I-153, 4-{[N-(1,1-dioxo-2,3-dihydro-1lambda6-thiophen-3-yl)-2-[2-fluoro-4-(1H-pyrrol-1-yl)phenyl]acetamido]methyl}-N-methyl-N-(prop-2-yn-1-yl)benzamide]",500 to 5000 nM
6,"O=C(Cc1ccc(-n2cccc2)cc1)N(Cc1nc2c(s1)CCCC2)C1C=CS(=O)(=O)C1 (centres unmarked) [I-154, N-(1,1-dioxo-2,3-dihydro-1lambda6-thiophen-3-yl)-2-[4-(1H-pyrrol-1-yl)phenyl]-N-[(4,5,6,7-tetrahydro-1,3-benzothiazol-2-yl)methyl]acetamide]",500 to 5000 nM
7,"O=C(Cc1ccc(-n2cccc2)cc1)N(Cc1nc2c(s1)CCC2)C1C=CS(=O)(=O)C1 (centres unmarked) [I-155, N-({4H,5H,6H-cyclopenta[d][1,3]thiazol-2-yl}methyl)-N-(1,1-dioxo-2,3-dihydro-1lambda6-thiophen-3-yl)-2-[4-(1H-pyrrol-1-yl)phenyl]acetamide]",500 to 5000 nM
8,"COc1cc(CN(C(=O)Cc2ccc(-n3cccc3)cc2)C2C=CS(=O)(=O)C2)ccn1 (centres unmarked) [I-156, N-(1,1-dioxo-2,3-dihydro-1lambda6-thiophen-3-yl)-N-[(2-methoxypyridin-4-yl)methyl]-2-[4-(1H-pyrrol-1-yl)phenyl]acetamide]",500 to 5000 nM
9,"O=C(Cc1ccc(-n2cccc2)cc1)N(Cc1cccc(Br)c1)C1C=CS(=O)(=O)C1 (centres unmarked) [I-157, N-[(3-bromophenyl)methyl]-N-(1,1-dioxo-2,3-dihydro-1lambda6-thiophen-3-yl)-2-[4-(1H-pyrrol-1-yl)phenyl]acetamide]",500 to 5000 nM
10,"COc1cc(CN(C(=O)Cc2ccc(-c3ccc(F)cc3)cc2)C2C=CS(=O)(=O)C2)ccn1 (centres unmarked) [I-158, N-(1,1-dioxo-2,3-dihydro-1lambda6-thiophen-3-yl)-2-{4′-fluoro-[1,1′-biphenyl]-4-yl}-N-[(2-methoxypyridin-4-yl)methyl]acetamide]",500 to 5000 nM
11,"COc1cc(CN(C(=O)C(C(=O)N(C)C)c2ccc(S(F)(F)(F)(F)F)cc2)C2C=CS(=O)(=O)C2)ccn1 (centres unmarked) [I-159, N′-(1,1-dioxo-2,3-dihydro-1lambda6-thiophen-3-yl)-N′-[(2-methoxypyridin-4-yl)methyl]-N,N-dimethyl-2-[4-(pentafluoro-lambda6-sulfanyl)phenyl]propanediamide]",500 to 5000 nM
12,"O=C(Cc1ccc(-n2cccc2)cc1)N(Cc1ccnc(Cl)c1)C1C=CS(=O)(=O)C1 (centres unmarked) [I-160, N-[(2-chloropyridin-4-yl)methyl]-N-(1,1-dioxo-2,3-dihydro-1lambda6-thiophen-3-yl)-2-[4-(1H-pyrrol-1-yl)phenyl]acetamide]",500 to 5000 nM
13,"O=C(Cc1ccc(-n2cccc2)cc1F)N(Cc1ccncc1)C1C=CS(=O)(=O)C1 (centres unmarked) [I-161, N-(1,1-dioxo-2,3-dihydro-1lambda6-thiophen-3-yl)-2-[2-fluoro-4-(1H-pyrrol-1-yl)phenyl]-N-[(pyridin-4-yl)methyl]acetamide]",500 to 5000 nM
14,"COc1cc(CN(C(=O)Cc2ccc(C3CC3)cc2)C2C=CS(=O)(=O)C2)ccn1 (centres unmarked) [I-162, 2-(4-cyclopropylphenyl)-N-(1,1-dioxo-2,3-dihydro-1lambda6-thiophen-3-yl)-N-[(2-methoxypyridin-4-yl)methyl]acetamide]",500 to 5000 nM
15,"O=C(Cc1ccc(-n2cccc2)cc1)N(Cc1ccc(Br)cc1)C1C=CS(=O)(=O)C1 (centres unmarked) [I-163, N-[(4-bromophenyl)methyl]-N-(1,1-dioxo-2,3-dihydro-1lambda6-thiophen-3-yl)-2-[4-(1H-pyrrol-1-yl)phenyl]acetamide]",500 to 5000 nM
16,"O=C(Cc1ccc(C2CCCCC2)cc1)N(Cc1ccncc1)C1C=CS(=O)(=O)C1 (centres unmarked) [I-164, 2-(4-cyclohexylphenyl)-N-(1,1-dioxo-2,3-dihydro-1lambda6-thiophen-3-yl)-N-[(pyridin-4-yl)methyl]acetamide]",500 to 5000 nM
17,"O=C(Cc1ccc(-n2cccc2)cc1)N(Cc1nc2cnccc2s1)C1C=CS(=O)(=O)C1 (centres unmarked) [I-165, N-(1,1-dioxo-2,3-dihydro-1lambda6-thiophen-3-yl)-2-[4-(1H-pyrrol-1-yl)phenyl]-N-({[1,3]thiazolo[4,5-c]pyridin-2-yl}methyl)acetamide]",500 to 5000 nM
18,"O=C(Cc1ccc(-c2cc(F)cc(F)c2)cc1)N(Cc1ccncc1)C1C=CS(=O)(=O)C1 (centres unmarked) [I-166, 2-{3′,5′-difluoro-[1,1′-biphenyl]-4-yl}-N-(1,1-dioxo-2,3-dihydro-1lambda6-thiophen-3-yl)-N-[(pyridin-4-yl)methyl]acetamide]",500 to 5000 nM
19,"CC(C)OC(C(=O)N(Cc1ccnc(C(C)(C)O)c1)C1C=CS(=O)(=O)C1)c1ccc(-c2ccc(F)c(F)c2)cc1F (centres unmarked) [I-167, N-(1,1-dioxo-2,3-dihydro-1lambda6-thiophen-3-yl)-N-{[2-(2-hydroxypropan-2-yl)pyridin-4-yl]methyl}-2-(propan-2-yloxy)-2-{3,3′,4′-trifluoro-[1,1′-biphenyl]-4-yl}acetamide]",500 to 5000 nM
20,"COc1cc(CN(C(=O)Cc2c(F)cc(-c3ccc(F)cc3)cc2F)C2C=CS(=O)(=O)C2)ccn1 (centres unmarked) [I-168, N-(1,1-dioxo-2,3-dihydro-1lambda6-thiophen-3-yl)-N-[(2-methoxypyridin-4-yl)methyl]-2-{3,4′,5-trifluoro-[1,1′-biphenyl]-4-yl}acetamide]",500 to 5000 nM
21,"CC(O)c1cc(CN(C(=O)Cc2ccc(-n3cccc3)cc2)C2C=CS(=O)(=O)C2)ccn1 (centres unmarked) [I-169, N-(1,1-dioxo-2,3-dihydro-1lambda6-thiophen-3-yl)-N-{[2-(1-hydroxyethyl)pyridin-4-yl]methyl}-2-[4-(1H-pyrrol-1-yl)phenyl]acetamide]",500 to 5000 nM
22,"O=C(Cc1ccc(-n2cccc2)cc1)N(Cc1ccnc2ccccc12)C1C=CS(=O)(=O)C1 (centres unmarked) [I-170, N-(1,1-dioxo-2,3-dihydro-1lambda6-thiophen-3-yl)-2-[4-(1H-pyrrol-1-yl)phenyl]-N-[(quinolin-4-yl)methyl]acetamide]",500 to 5000 nM
23,"COc1cc(CN(C(=O)Cc2ccc(-n3c(C)ccc3C)cc2F)C2C=CS(=O)(=O)C2)ccn1 (centres unmarked) [I-171, 2-[4-(2,5-dimethyl-1H-pyrrol-1-yl)-2-fluorophenyl]-N-(1,1-dioxo-2,3-dihydro-1lambda6-thiophen-3-yl)-N-[(2-methoxypyridin-4-yl)methyl]acetamide]",500 to 5000 nM
24,"COc1cc(CN(C(=O)Cc2ncc(-c3ccc(F)cc3)cc2F)C2C=CS(=O)(=O)C2)ccn1 (centres unmarked) [I-172, N-(1,1-dioxo-2,3-dihydro-1lambda6-thiophen-3-yl)-2-[3-fluoro-5-(4-fluorophenyl)pyridin-2-yl]-N-[(2-methoxypyridin-4-yl)methyl]acetamide]",500 to 5000 nM
25,"Cc1cccn1-c1ccc(CC(=O)N(Cc2ccn(C)c(=O)c2)C2C=CS(=O)(=O)C2)c(F)c1 (centres unmarked) [I-173, N-(1,1-dioxo-2,3-dihydro-1lambda6-thiophen-3-yl)-2-[2-fluoro-4-(2-methyl-1H-pyrrol-1-yl)phenyl]-N-[(1-methyl-2-oxo-1,2-dihydropyridin-4-yl)methyl]acetamide]",500 to 5000 nM
26,"Cc1cccn1-c1ccc(C(C(=O)N(C)C)C(=O)N(Cc2ccnc(C(C)(C)O)c2)C2C=CS(=O)(=O)C2)c(F)c1 (centres unmarked) [I-174, N-(1,1-dioxo-2,3-dihydro-1lambda6-thiophen-3-yl)-2-[2-fluoro-4-(2-methyl-1H-pyrrol-1-yl)phenyl]-N-{[2-(2-hydroxypropan-2-yl)pyridin-4-yl]methyl}-N′,N′-dimethylpropanediamide]",500 to 5000 nM
27,"COc1cc(CN(C(=O)Cc2ccc(-c3ccc(F)cc3)cn2)C2C=CS(=O)(=O)C2)ccn1 (centres unmarked) [I-175, N-(1,1-dioxo-2,3-dihydro-1lambda6-thiophen-3-yl)-2-[5-(4-fluorophenyl)pyridin-2-yl]-N-[(2-methoxypyridin-4-yl)methyl]acetamide]",500 to 5000 nM
28,"COc1cc(CN(C(=O)C2Cc3cc(-c4ccc(F)cc4)ccc32)C2C=CS(=O)(=O)C2)ccn1 (centres unmarked) [I-176, N-(1,1-dioxo-2,3-dihydro-1lambda6-thiophen-3-yl)-3-(4-fluorophenyl)-N-[(2-methoxypyridin-4-yl)methyl]bicyclo[4.2.0]octa-1,3,5-triene-7-carboxamide]",500 to 5000 nM
29,"O=C(Cc1ccc(C2CCC2)cc1)N(Cc1ccncc1)C1C=CS(=O)(=O)C1 (centres unmarked) [I-177, 2-(4-cyclobutylphenyl)-N-(1,1-dioxo-2,3-dihydro-1lambda6-thiophen-3-yl)-N-[(pyridin-4-yl)methyl]acetamide]",500 to 5000 nM
